From patent US20260125374A1, “PI3K-ALPHA INHIBITORS AND METHODS OF MAKING AND USING THE SAME” (Relay Therapeutics, Inc., priority 2021, published 2026)
Marks after values point to notes of the source that are not given here.

Assay: Polymorph screening (equilibration, anti-solvent, slow evaporation, slow cooling, temperature cycling, heating-cooling; XRPD and SFC)
Type: physicochemical
Procedure: This polymorph screening program of compound I-1 free form was performed with two batches of the pure enantiomer. Both batches are crystalline and is assigned as Form A. The polymorphic behaviors of the enantiomer were investigated by equilibration at 25° C. and 50° C., equilibration under a temperature cycle, crystallization from hot saturated solutions by slow cooling, slow evaporation, precipitation by addition of anti-solvent, and DSC heating-cooling cycle experiments. Relative stability of identified polymorphs was investigated by competitive slurry experiments.
(§1) About 50 mg of I-1 Form A was weighed into a 2 mL glass vial and equilibrated in suitable amount of solvents (pretreated by molecular sieves) at 25° C. for 2 weeks with a stirring plate and with protection from light. Obtained suspensions were filtered with 0.45 μm nylon membrane and the solid parts (wet cake) were investigated by XRPD. When differences were observed, additional investigations were performed (e.g. DSC, TGA, ^1H-NMR, SFC).
as §1, with “into” for “into a”, “vials” for “vial”, “50°” for “25°”, “10 days” for “2 weeks”, “investigation was” for “investigations were”
I-1 Form A was dissolved in a good solvent. […] The solvents used were pretreated by molecular sieve. Precipitates were collected by filtration. The solid part (wet cake) was investigated by XRPD. […] When differences were observed, additional investigations were performed (e.g. DSC, TGA, ^1H-NMR, SFC).
Based on approximate solubility results, I-1 Form A was dissolved in suitable amount of solvents (pretreated by molecular sieves). Obtained solutions were filtered by 0.45 μm nylon filter. […] Solid residues were examined for their polymorphic form. When differences were observed, additional investigations were performed (e.g. DSC, TGA, ^1H-NMR, SFC).
Approximate 50 mg of batch I-1 Form A were dissolved in the minimal amount of selected solvents (without pretreatment by molecular sieves) at 50° C. Obtained solutions were filtered by 0.45 μm nylon filter. […] Precipitates were collected by filtration. The solid parts (wet cake) were investigated by XRPD. When differences were observed, additional investigations were performed (e.g. DSC, TGA, ^1H-NMR, SFC). When no precipitation was obtained or only a few solids were obtained, the solutions were placed at 5° C. for crystallization.
About 50 mg of I-1 Form A was equilibrated in different solvents (pretreated by molecular sieves) under a temperature cycle between 5° C. to 50° C. at a heating/cooling rate of 0.2° C./min for 10 cycles and with protection from light. After 10 cycles, precipitates were collected at 5° C. by filtration. The solid parts (wet cake) were investigated by XRPD. When differences were observed, additional investigations were performed (e.g. DSC, TGA, 1H-NMR, SFC).
Polymorphic behavior of I-1 Form A was investigated by two different heating-cooling cycles of DSC. Cycle 1:30° C. to 280° C. at 10° C./min; 280° C. to −20° C. at 20° C./min; reheat to 300° C. at 10° C./min. Cycle 2:30° C. to 280° C. at 10° C./min; 280° C. to-20° C. at 2° C./min; reheat to 300° C. at 10° C./min.

N#Cc1c(-c2cc(NC(=O)c3cc(F)cc(C(F)(F)F)c3)c3c(c2)C(=O)N[C@H]3c2cc(F)ccc2Cl)ccc2ncnn12 [Compound I-1, (R)-N-(3-(2-chloro-5-fluorophenyl)-6-(5-cyano-[1,2,4]triazolo[1,5-a]pyridin-6-yl)-1-oxoisoindolin-4-yl)-3-fluoro-5-(trifluoromethyl)benzamide]
XRPD (equilibration at 50° C. for 10 days in Ethyl acetate): I-1 Form A | XRPD (equilibration at 50° C. for 10 days in Isopropyl acetate): I-1 Form A | XRPD (equilibration at 50° C. for 10 days in MeOH/water(55:45, v/v) a.w. 0.7): I-1 Form A | XRPD (equilibration at 50° C. for 10 days in Methanol): III-1 Form A | ee %(SFC) (equilibration at 50° C. for 10 days in Methanol, SFC immediately after preparation): ee % (SFC): 48.4%* | XRPD (equilibration at 50° C. for 10 days in Methyl ethyl ketone): I-1 Form A | XRPD (equilibration at 50° C. for 10 days in THF/water(85:15, v/v) a.w. 0.9): I-1 Form A | XRPD (equilibration at 50° C. for 10 days in Water): I-1 Form A | XRPD (equilibration at 50° C. for 10 days in t-Butyl methyl ether): I-1 Form A | ee %(SFC) (equilibration at 50° C. in 1,4-Dioxane, added I-1 Form B seeds and stirred for 4 days): ee %(SFC): 80.1%* | ee %(SFC) (equilibration at 50° C. in 1,4-Dioxane, with molecular sieve and stirred for 6 days): ee %(SFC): 88.26%* | ee %(SFC) (equilibration at 50° C. in 1,4-Dioxane, without molecular sieve and stirred for 6 days): ee %(SFC): 81.26%* | ee %(SFC) (equilibration at 50° C. in THF, added I-1 Form B seeds and stirred for 4 days): ee %(SFC): 82.5%* | ee %(SFC) (equilibration in ACN/water(80:20, v/v), 25° C., pH 7.27, III-1 Form A seeds, 3 days): ee %(SFC): 90.9%* | ee %(SFC) (equilibration in ACN/water(80:20, v/v), 25° C., pH 7.27, III-1 Form A seeds, 8 days): ee %(SFC): 89.3%* | ee %(SFC) (equilibration in ACN/water(80:20, v/v), 50° C., pH 4.48, 3 days): ee %(SFC): 89.6%* | ee %(SFC) (equilibration in ACN/water(80:20, v/v), 50° C., pH 4.48, 5 days): ee %(SFC): 88.9%* | ee %(SFC) (equilibration in ACN/water(80:20, v/v), 50° C., pH 6.79, 3 days): ee %(SFC): 67.4%* | ee %(SFC) (equilibration in EtOH/water(50:50, v/v), 50° C., pH 6.82, 3 days): ee %(SFC): 91.6%* | ee %(SFC) (equilibration in Methanol, 50° C., pH 6.21, 3 days): ee %(SFC): 87.9%* | ee %(SFC) (slow cooling 50° C. to 5° C. from 1,4-Dioxane, SFC immediately after preparation): ee %(SFC): −0.2%* | Comments (outcome) (slow cooling 50° C. to 5° C. from ACN): clear solution | Comments (outcome) (slow cooling 50° C. to 5° C. from Acetone): clear solution | Comments (outcome) (slow cooling 50° C. to 5° C. from Benzyl alcohol): clear solution | Comments (outcome) (slow cooling 50° C. to 5° C. from MEK): clear solution | Comments (outcome) (slow cooling 50° C. to 5° C. from MeOH): clear solution | Comments (outcome) (slow cooling 50° C. to 5° C. from THF): clear solution | XRPD (slow evaporation at room temperature from 1,4-Dioxane): Amorphous form | XRPD (slow evaporation at room temperature from ACN): Amorphous form | XRPD (slow evaporation at room temperature from Acetone): Amorphous form | XRPD (slow evaporation at room temperature from MeOH): III-1D | XRPD (slow evaporation at room temperature from THF): Amorphous form | ee %(SFC) (slow evaporation from MeOH (not pretreated by molecular sieves) at 25° C. for 12 days): ee %(SFC): 98.0%* | ee %(SFC) (slow evaporation from MeOH/DCM(1:1, v/v), added I-1 Form D seeds): ee %(SFC): 88.9%* | ee %(SFC) (slow evaporation from MeOH, SFC immediately after preparation): ee % (SFC): 68.6%* | Comments (outcome) (temperature cycling 5° C. to 50° C. in 1,4-Dioxane, target concentration: 250 mg/mL): Clear solution, target concentration: 250 mg/mL | Comments (outcome) (temperature cycling 5° C. to 50° C. in THF/water(85:15, v/v) a.w. 0.9, target concentration: 250 mg/mL): Clear solution, target concentration: 250 mg/mL | Comments (outcome) (temperature cycling 5° C. to 50° C. in Tetrahydrofuran, target concentration: 250 mg/mL): Clear solution, target concentration: 250 mg/mL | XRPD (temperature cycling 5° C. to 50° C., 10 cycles, in 2-MeTHF): I-1 Form A | XRPD (temperature cycling 5° C. to 50° C., 10 cycles, in ACN/water(80:20, v/v) a.w. 0.9): I-1 Form A | XRPD (temperature cycling 5° C. to 50° C., 10 cycles, in Acetone): I-1 Form A | XRPD (temperature cycling 5° C. to 50° C., 10 cycles, in Acetone/water(60:40, v/v) a.w. 0.8): I-1 Form A | XRPD (temperature cycling 5° C. to 50° C., 10 cycles, in Acetonitrile): I-1 Form A | XRPD (temperature cycling 5° C. to 50° C., 10 cycles, in Benzyl alcohol): I-1 Form A | XRPD (temperature cycling 5° C. to 50° C., 10 cycles, in EtOH/water(50:50, v/v) a.w. 0.9): I-1 Form A | XRPD (temperature cycling 5° C. to 50° C., 10 cycles, in Ethanol): I-1 Form A | XRPD (temperature cycling 5° C. to 50° C., 10 cycles, in Ethyl acetate): I-1 Form A | XRPD (temperature cycling 5° C. to 50° C., 10 cycles, in MeOH/water(55:45, v/v) a.w. 0.7): I-1 Form A | ee %(SFC) (temperature cycling 5° C. to 50° C., 10 cycles, in MeOH/water(55:45, v/v), SFC immediately after preparation): ee %(SFC): 100.0%* | ee %(SFC) (temperature cycling 5° C. to 50° C., 10 cycles, in Methanol, SFC immediately after preparation): ee %(SFC): 89.4%* | XRPD (temperature cycling 5° C. to 50° C., 10 cycles, in Methyl ethyl ketone): I-1 Form A
